Assay results reported in patent US4650661A, “Enzyme inhibitors” (priority 1982, dated 1987).
Where two headings read alike, the source gives them in different places. Non-standard residues stand in square brackets, D forms with d. Residues, ends and D or L forms follow the SMILES beside them. *: point of attachment. Sta = CC(C)C[C@H](N)[C@@H](O)CC(=O)O; Isovaleryl = CC(C)CC(=O)*

Legend:
[1] = biological target: T1, human renin (Homo sapiens, UniProt P00797); experiment: renin inhibition, methods of published European specification; assay type: biochemical
T1 sequence (P00797 67-406): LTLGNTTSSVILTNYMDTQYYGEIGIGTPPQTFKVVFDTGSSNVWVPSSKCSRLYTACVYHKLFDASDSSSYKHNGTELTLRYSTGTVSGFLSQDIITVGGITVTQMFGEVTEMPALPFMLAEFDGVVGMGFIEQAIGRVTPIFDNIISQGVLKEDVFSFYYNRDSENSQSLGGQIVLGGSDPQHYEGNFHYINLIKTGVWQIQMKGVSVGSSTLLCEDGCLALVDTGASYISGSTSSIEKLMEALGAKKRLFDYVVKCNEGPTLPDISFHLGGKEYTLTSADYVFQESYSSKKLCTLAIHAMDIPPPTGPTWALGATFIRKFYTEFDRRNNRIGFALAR
From the text: (§1) This compound is the subject of Example 1 below.

[2] = tested on: baboon renin; experiment: renin inhibition, baboon renin; assay type: biochemical; conditions: preliminary results, read-out: IC50 against baboon renin (preliminary results)
From the text: as §1
The following are the fully detailed examples referred to earlier. The activity of H-176 (Example I) has already been given.

[3] = tested on: acid proteases; conditions: cited from earlier work

**Q.** Which IC50 ([1]; preliminary results, read-out: IC50 against human renin (preliminary results)) does the source give for H-PHPFH[Sta]VIHK-OH [Example H-189] here?
**A.** Its IC50 is 9 nM.

**Q.** What about the IC50 [2] of the same compound?
**A.** Its IC50 is 12 nM.

**Q.** Which IC50 ([1]; read-out: IC50 against human renin) does the source give for H-HPFH[Sta]VIH-OH [Example H-176] here?
**A.** Its IC50 is 16 nM.

**Q.** With `CC(C)CC(=O)N[C@H](C(=O)N[C@H](C(=O)N[C@@H](CC(C)C)[C@@H](O)CC(=O)N[C@@H](C)C(=O)N[C@@H](CC(C)C)[C@@H](O)CC(=O)O)C(C)C)C(C)C` [pepstatin, iso-valeryl-L-valyl-L-valyl-S,S,-statyl-L-alanyl-S,S-statine] (Isovaleryl-VV[Sta]A[Sta]-OH) as the compound, how does the “inhibition of acid proteases (pepsin, cathepsin D, chymosin, renin)” value [3] read?
**A.** The value was “inhibits acid proteases in general”.
